Measurements as given in patent US20240245649A1, “Method and Composition for Mimicking Caloric Restriction by Administration of Ergothioneine” (NANJING NUTRABUILDING BIO-TECH CO., LTD., priority 2021, published 2024).

Assays:
high-fat diet (HFD) mice [1] = assay: Blood LDL and HDL in high-fat diet mice supplemented with Ergothioneine; assay type: in vivo
Procedure: (§1) Mice group were named after the diet they consumed. Group A mice was fed ad libitum (control), and group B mice was on high-fat diet (HFD), Group C was fed restricted amount of the HFD diet to achieve caloric restriction (HFD+CR), and Group D was fed high-fat diet and supplemented with Ergothioneine (HFD+EGT), the concentration of Ergothioneine is 3.25 mg/kg. All groups of mice were housed individually, and fed for months of interventions and had free access to water. Health status was monitored during the intervention. At the end of each intervention, body composition, insulin sensitivity, blood glucose level, different blood parameters and lifespan of the mice were studied. After treatment, blood is taken to measure high-density lipoprotein (HDL), low-density lipoprotein (LDL) and HOmeostasis Model Assessment-Insulin Resistance (HOMA-IR). The HOMA-IR index was calculated using the following formula: HOMA-IR=[fasting glucose levels (mmol/L)]×[fasting serum insulin (mU/L)]/22.5. At the end of the experiment, AKT and phospho-AKT (Ser473) protein levels in skeletal muscle after 2 IU/kg insulin stimulation for 15 min were determined by immunoblotting (n=3-6). The concentrations of inflammatory cytokines including tumor necrosis factor-α (TNF-α) and interleukin (IL)-6, and oxidative stress markers including malonaldehyde (MDA) and superoxide dismutase (SOD) were detected by ELISA kits.

high-fat diet (HFD) mice [2] = assay: HOMA-IR (fasting glucose x fasting serum insulin /22.5) in high-fat diet mice; assay type: in vivo
Procedure: as §1

[3] = tested on: AKT and phospho-AKT (Ser473); assay: AKT and phospho-AKT (Ser473) protein levels in skeletal muscle after insulin stimulation, immunoblotting; assay type: in vivo, mice
Procedure: as §1

[4] = tested on: tumor necrosis factor-α (TNF-α) and interleukin (IL)-6; assay: Inflammatory cytokines TNF-α and IL-6 by ELISA kits in high-fat diet mice; assay type: in vivo
Procedure: as §1

[5] = tested on: malonaldehyde (MDA) and superoxide dismutase (SOD); assay: Oxidative stress markers MDA and SOD by ELISA kits in high-fat diet mice; assay type: in vivo
Procedure: as §1

[6] = animals and humans, even at high doses; cited from earlier work

C[N+](C)(C)[C@@H](Cc1c[nH]c(=S)[nH]1)C(=O)[O-] [Ergothioneine]
level of LDL (high-fat diet (HFD) mice [1]; HFD+EGT (Group D), Ergothioneine 3.25 mg/kg, vs HFD group, FIG. 1): significantly decreased | level of HDL (high-fat diet (HFD) mice [1]; HFD+EGT (Group D), Ergothioneine 3.25 mg/kg, vs HFD group, FIG. 2): significantly increased | LDL level decreased by Ergothioneine to (high-fat diet (HFD) mice [1]; broadest of the nested bounds printed (24, 22, 20, 18, 15)): ≤ 24 mg/dL | HDL level increased by Ergothioneine to (high-fat diet (HFD) mice [1]; broadest of the nested bounds printed (40, 42, 44, 46, 48, 50)): ≥ 40 mg/dL | HOMA-IR (high-fat diet (HFD) mice [2]; HFD+EGT group vs HFD group, FIG. 3): lower HOMA-IR than HFD group | HOMA-IR decreased by Ergothioneine to (high-fat diet (HFD) mice [2]; broadest of the nested bounds printed (28, 26, 24, 22, 20, 15)): ≤ 28 | p-AKT/AKT increased by Ergothioneine to ([3]; broadest of the nested bounds printed (0.25, 0.35, 0.40, 0.45, 0.53, 0.60)): ≥ 0.25 | insulin-stimulated AKT phosphorylation (p-AKT)/AKT relative protein expression ([3]; skeletal muscle, 2 IU/kg insulin for 15 min, HFD+EGT vs HFD group, FIG. 4): higher than HFD group | content of TNF-α ([4]; HFD+EGT group compared with HFD group, FIG. 5): remarkably decreased | content of IL-6 ([4]; HFD+EGT group compared with HFD group, FIG. 6): remarkably decreased | level of IL-6 decreased by Ergothioneine to ([4]; broadest of the nested bounds printed (38, 35, 30, 28, 26, 22)): ≤ 38 pg/mL | level of TNF-α decreased by Ergothioneine to ([4]; broadest of the nested bounds printed (40, 38, 35, 32, 30, 28, 26)): ≤ 40 pg/mL | MDA expression ([5]; EGT compared with HFD group, FIG. 7): reduction of MDA expression | SOD expression ([5]; EGT compared with HFD group, FIG. 8): elevation of SOD expression | level of MDA decreased by Ergothioneine to ([5]; broadest of the nested bounds printed (15, 13, 12, 11, 10, 8)): ≤ 15 nmol/mL | level of SOD increased by Ergothioneine to ([5]; broadest of the nested bounds printed (45, 48, 50, 51, 52, 55)): ≥ 45 U/mL | toxicity or adverse effects associated with administration [6]: no toxicity or adverse effects
